According to patent US12103919B2, “3-(5-oxy)-1-oxoisoindolin-2-yl)piperidine-2,6-dione derivatives and uses thereof” (NOVARTIS AG, priority 2021, dated 2024):
Read-outs that look alike come from different tables or passages of the source.

Molecular target: T1, WIZ (Homo sapiens, UniProt O95785+Q96SW2)
T1 construct: expressed in transfected cells
Assay: Quantification of WIZ protein levels in HiBit tag fusion protein assay (293T cells)
Format: cell-based
Set-up: Dmax: dose or concentration left out as unconfirmed
Conditions: for remaining activity at 25 µM / Dmax at 25 µM / Dmax: HEK-293T; for remaining activity at 25 µM: read-out: WIZ Amax; for DC50: WIZ HiBit assay in 293T cells, about 18 hours, 10-point 5-fold dilution, top 25 μM, read-out: WIZ AC50; for Dmax at 25 µM: 100 − Amax; for Dmax at 25 µM / Dmax: read-out: % degradation of WIZ (100 − Amax)
In short: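 293T cells stably carrying a single-copy HiBit-WIZ fusion were exposed to compounds for about 18 hours at 37° C., top concentration 25 μM, 10-point 5-fold series. Lysates were complemented with LgBit and luminescence was read. Amax is the DMSO-normalized, curve-fitted percentage of WIZ-HiBit remaining at 25 uM.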

[1] = DMSO-normalized, curve-fitted percentage of WIZ-HiBit remaining at 25 uM

T1 sequence (O95785 whole entry): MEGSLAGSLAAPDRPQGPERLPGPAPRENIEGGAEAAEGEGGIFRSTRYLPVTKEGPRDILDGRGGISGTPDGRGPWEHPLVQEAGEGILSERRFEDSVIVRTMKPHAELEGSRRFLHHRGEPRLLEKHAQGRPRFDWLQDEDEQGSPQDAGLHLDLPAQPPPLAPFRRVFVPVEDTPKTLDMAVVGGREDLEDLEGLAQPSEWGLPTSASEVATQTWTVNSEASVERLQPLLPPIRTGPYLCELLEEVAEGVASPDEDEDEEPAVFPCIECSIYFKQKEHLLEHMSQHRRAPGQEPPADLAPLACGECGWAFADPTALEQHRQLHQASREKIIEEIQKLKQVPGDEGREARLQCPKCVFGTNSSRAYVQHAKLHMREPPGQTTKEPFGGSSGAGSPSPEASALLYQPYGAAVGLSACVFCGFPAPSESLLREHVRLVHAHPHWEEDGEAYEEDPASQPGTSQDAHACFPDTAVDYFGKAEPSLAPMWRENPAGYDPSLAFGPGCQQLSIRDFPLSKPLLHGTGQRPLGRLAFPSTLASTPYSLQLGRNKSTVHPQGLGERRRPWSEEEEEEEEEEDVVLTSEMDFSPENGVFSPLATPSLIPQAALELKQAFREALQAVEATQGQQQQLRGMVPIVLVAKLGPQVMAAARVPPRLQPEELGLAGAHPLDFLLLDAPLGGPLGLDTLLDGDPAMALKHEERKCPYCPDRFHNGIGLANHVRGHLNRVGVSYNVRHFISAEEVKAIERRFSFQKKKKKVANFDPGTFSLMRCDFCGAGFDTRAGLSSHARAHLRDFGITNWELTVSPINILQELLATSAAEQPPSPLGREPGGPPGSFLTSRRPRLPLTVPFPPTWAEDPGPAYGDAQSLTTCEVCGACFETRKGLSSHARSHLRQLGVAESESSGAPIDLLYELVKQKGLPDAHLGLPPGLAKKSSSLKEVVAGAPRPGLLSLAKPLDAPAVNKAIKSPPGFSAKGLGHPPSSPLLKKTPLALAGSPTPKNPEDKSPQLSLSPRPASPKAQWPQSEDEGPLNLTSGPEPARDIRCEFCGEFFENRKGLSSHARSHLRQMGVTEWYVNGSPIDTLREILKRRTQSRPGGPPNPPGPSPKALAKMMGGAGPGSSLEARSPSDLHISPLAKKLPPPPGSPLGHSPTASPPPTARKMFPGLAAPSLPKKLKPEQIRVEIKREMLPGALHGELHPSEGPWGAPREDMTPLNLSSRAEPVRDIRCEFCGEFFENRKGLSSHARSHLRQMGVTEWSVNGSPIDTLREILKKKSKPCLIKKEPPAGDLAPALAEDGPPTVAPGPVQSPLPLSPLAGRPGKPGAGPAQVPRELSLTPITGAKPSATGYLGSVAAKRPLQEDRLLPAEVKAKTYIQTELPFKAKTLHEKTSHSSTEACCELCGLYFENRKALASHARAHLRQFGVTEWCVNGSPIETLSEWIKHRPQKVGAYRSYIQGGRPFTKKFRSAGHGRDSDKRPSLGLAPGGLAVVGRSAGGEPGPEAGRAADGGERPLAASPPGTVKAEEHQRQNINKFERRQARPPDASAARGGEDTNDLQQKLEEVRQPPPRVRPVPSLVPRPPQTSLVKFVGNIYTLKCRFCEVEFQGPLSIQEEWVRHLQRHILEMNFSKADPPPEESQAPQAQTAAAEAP
T1 sequence (Q96SW2 whole entry): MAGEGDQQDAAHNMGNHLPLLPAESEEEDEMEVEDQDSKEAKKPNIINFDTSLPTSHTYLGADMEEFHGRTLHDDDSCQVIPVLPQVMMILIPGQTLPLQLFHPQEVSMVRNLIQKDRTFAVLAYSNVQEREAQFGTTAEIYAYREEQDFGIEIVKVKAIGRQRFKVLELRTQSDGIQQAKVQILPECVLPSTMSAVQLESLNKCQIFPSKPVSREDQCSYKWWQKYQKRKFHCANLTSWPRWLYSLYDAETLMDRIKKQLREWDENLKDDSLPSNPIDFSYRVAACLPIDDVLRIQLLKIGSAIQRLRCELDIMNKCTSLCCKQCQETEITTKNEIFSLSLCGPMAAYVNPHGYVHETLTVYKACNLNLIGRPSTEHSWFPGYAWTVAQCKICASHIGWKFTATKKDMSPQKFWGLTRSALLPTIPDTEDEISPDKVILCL
T1 sequence (Q16531 whole entry partner): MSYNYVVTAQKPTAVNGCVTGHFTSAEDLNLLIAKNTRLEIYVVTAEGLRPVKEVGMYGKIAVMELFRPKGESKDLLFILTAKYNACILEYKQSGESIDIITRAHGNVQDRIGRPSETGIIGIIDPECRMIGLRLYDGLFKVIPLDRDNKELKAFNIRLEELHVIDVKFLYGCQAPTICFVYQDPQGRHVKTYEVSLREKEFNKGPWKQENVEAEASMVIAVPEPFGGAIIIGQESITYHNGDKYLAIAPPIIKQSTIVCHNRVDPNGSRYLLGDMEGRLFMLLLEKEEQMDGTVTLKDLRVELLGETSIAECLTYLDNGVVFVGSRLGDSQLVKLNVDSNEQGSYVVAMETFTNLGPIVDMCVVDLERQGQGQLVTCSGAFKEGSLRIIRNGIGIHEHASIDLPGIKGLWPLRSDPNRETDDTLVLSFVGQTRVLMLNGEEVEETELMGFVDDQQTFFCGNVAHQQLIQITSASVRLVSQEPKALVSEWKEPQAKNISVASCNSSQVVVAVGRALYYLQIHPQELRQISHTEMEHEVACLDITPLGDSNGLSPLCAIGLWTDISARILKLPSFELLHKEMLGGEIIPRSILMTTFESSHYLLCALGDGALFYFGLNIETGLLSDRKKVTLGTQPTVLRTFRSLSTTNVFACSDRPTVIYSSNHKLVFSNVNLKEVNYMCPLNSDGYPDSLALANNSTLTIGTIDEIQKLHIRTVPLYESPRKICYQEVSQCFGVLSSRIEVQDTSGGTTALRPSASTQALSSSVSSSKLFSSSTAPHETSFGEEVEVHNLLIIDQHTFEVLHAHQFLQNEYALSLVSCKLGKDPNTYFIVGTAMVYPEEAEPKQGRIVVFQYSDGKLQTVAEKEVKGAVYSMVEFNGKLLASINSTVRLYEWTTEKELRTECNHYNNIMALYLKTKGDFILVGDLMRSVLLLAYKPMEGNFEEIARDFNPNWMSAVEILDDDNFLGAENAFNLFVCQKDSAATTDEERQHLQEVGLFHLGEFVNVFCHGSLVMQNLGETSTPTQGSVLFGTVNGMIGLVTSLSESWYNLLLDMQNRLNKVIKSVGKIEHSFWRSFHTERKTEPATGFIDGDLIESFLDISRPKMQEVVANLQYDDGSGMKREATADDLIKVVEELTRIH

| remaining activity at 25 µM [1] [%] | DC50 [nM] | Dmax at 25 µM [%] | SMILES | Dmax [%] | remaining activity at 25 µM [%] |
| --- | --- | --- | --- | --- | --- |
| 107 | > 25000 |  | CCO[C@@H]1C[C@@H](Oc2ccc3c(c2)CN(C2CCC(=O)NC2=O)C3=O)CN(C(C)=O)C1 (stereo partly drawn) [Example 70, 3-(5-(((3R,5R)-1-acetyl-5-ethoxypiperidin-3-yl)oxy)-1-oxoisoindolin-2-yl)piperidine-2,6-dione] |  |  |
| 39 | 45.3 | 61 | CCO[C@@H]1C[C@@H](Oc2ccc3c(c2)CN(C2CCC(=O)NC2=O)C3=O)CN(S(C)(=O)=O)C1 (stereo partly drawn) [Example 71, 3-(5-(((3R,5R)-5-ethoxy-1-(methylsulfonyl)piperidin-3-yl)oxy)-1-oxoisoindolin-2-yl)piperidine-2,6-dione] |  |  |
| 40.1 | 41.5 | 59.9 | CCO[C@@H]1C[C@@H](Oc2ccc3c(c2)CN(C2CCC(=O)NC2=O)C3=O)CN(CC(C)C)C1 (stereo partly drawn) [Example 72, 3-(5-(((3R,5R)-5-ethoxy-1-isobutylpiperidin-3-yl)oxy)-1-oxoisoindolin-2-yl)piperidine-2,6-dione] |  |  |
| 21.9 | 8.9 | 78.1 | CCO[C@@H]1C[C@@H](Oc2ccc3c(c2)CN(C2CCC(=O)NC2=O)C3=O)CN(C(C)C)C1 (stereo partly drawn) [Example 74, 3-(5-(((3R,5R)-5-ethoxy-1-isopropylpiperidin-3-yl)oxy)-1-oxoisoindolin-2-yl)piperidine-2,6-dione] |  |  |
| 13.6 | 1.1 | 86.5 | CC(C)N1C[C@H](C)C[C@@H](Oc2ccc3c(c2)CN(C2CCC(=O)NC2=O)C3=O)C1 (stereo partly drawn) [Example 77, 3-(5-(((3R,5R)-1-isopropyl-5-methylpiperidin-3-yl)oxy)-1-oxoisoindolin-2-yl)piperidine-2,6-dione] |  |  |
| 17.3 | 1.7 | 82.7 | CC(C)CN1C[C@H](C)C[C@@H](Oc2ccc3c(c2)CN(C2CCC(=O)NC2=O)C3=O)C1 (stereo partly drawn) [Example 79, 3-(5-(((3R,5R)-1-isobutyl-5-methylpiperidin-3-yl)oxy)-1-oxoisoindolin-2-yl)piperidine-2,6-dione] |  |  |
| 28.6 | 23.4 | 71.4 | C[C@@H]1C[C@@H](Oc2ccc3c(c2)CN(C2CCC(=O)NC2=O)C3=O)CN(S(C)(=O)=O)C1 (stereo partly drawn) [Example 80, 3-(5-(((3R,5R)-5-methyl-1-(methylsulfonyl)piperidin-3-yl)oxy)-1-oxoisoindolin-2-yl)piperidine-2,6-dione] |  |  |
| 10.7 | 2 | 89.3 | CC(C)N1C[C@H](Oc2ccc3c(c2)CN(C2CCC(=O)NC2=O)C3=O)CC[C@@H]1C (stereo partly drawn) [Example 81, 3-(5-(((3R,6S)-1-isopropyl-6-methylpiperidin-3-yl)oxy)-1-oxoisoindolin-2-yl)piperidine-2,6-dione] |  |  |
| 96.8 | > 25000 | 3.24 | CCOC(=O)N1C[C@H](Oc2ccc3c(c2)CN(C2CCC(=O)NC2=O)C3=O)CC[C@@H]1C (stereo partly drawn) [Example 83, ethyl (2S,5R)-5-((2-(2,6-dioxopiperidin-3-yl)-1-oxoisoindolin-5-yl)oxy)-2-methylpiperidine-1-carboxylate] |  |  |
| 81.7 | 1170 | 18.3 | CNC(=O)N1C[C@H](Oc2ccc3c(c2)CN(C2CCC(=O)NC2=O)C3=O)CC[C@@H]1C (stereo partly drawn) [Example 84, (2S,5R)-5-((2-(2,6-dioxopiperidin-3-yl)-1-oxoisoindolin-5-yl)oxy)-N,2-dimethylpiperidine-1-carboxamide] |  |  |
| 65.7 | 67.2 | 34.3 | C[C@H]1CC[C@@H](Oc2ccc3c(c2)CN(C2CCC(=O)NC2=O)C3=O)CN1S(C)(=O)=O (stereo partly drawn) [Example 85, 3-(5-(((3R,6S)-6-methyl-1-(methylsulfonyl)piperidin-3-yl)oxy)-1-oxoisoindolin-2-yl)piperidine-2,6-dione] |  |  |
| 76 | > 25000 | 24 | CC(=O)N1C[C@H](Oc2ccc3c(c2)CN(C2CCC(=O)NC2=O)C3=O)CC[C@@H]1C (stereo partly drawn) [Example 86, 3-(5-(((3R,6S)-1-acetyl-6-methylpiperidin-3-yl)oxy)-1-oxoisoindolin-2-yl)piperidine-2,6-dione] |  |  |

| SMILES | remaining activity at 25 µM [1] [%] | DC50 [nM] | Dmax at 25 µM [%] | Dmax [%] | remaining activity at 25 µM [%] |
| --- | --- | --- | --- | --- | --- |
| CCO[C@@H]1C[C@@H](Oc2ccc3c(c2)CN(C2CCC(=O)NC2=O)C3=O)CN(C2CCC2)C1 (stereo partly drawn) [Example 73, 3-(5-(((3R,5R)-1-cyclobutyl-5-ethoxypiperidin-3-yl)oxy)-1-oxoisoindolin-2-yl)piperidine-2,6-dione] |  | 23.8 |  | 62.8 | 37.2 |
| C[C@@H]1C[C@@H](Oc2ccc3c(c2)CN(C2CCC(=O)NC2=O)C3=O)CN(C)C1 (stereo partly drawn) [Example 75-2, 3-(5-(((3R,5R)-1,5-dimethylpiperidin-3-yl)oxy)-1-oxoisoindolin-2-yl)piperidine-2,6-dione] |  | 4 |  | 83.5 | 16.5 |
| C[C@@H]1C[C@@H](Oc2ccc3c(c2)CN(C2CCC(=O)NC2=O)C3=O)CN(C2CCC2)C1 (stereo partly drawn) [Example 78, 3-(5-(((3R,5R)-1-cyclobutyl-5-methylpiperidin-3-yl)oxy)-1-oxoisoindolin-2-yl)piperidine-2,6-dione] |  | 0.5 |  | 85.7 | 14.3 |
| C[C@H]1CC[C@@H](Oc2ccc3c(c2)CN(C2CCC(=O)NC2=O)C3=O)CN1C1CCC1 (stereo partly drawn) [Example 82, 3-(5-(((3R,6S)-1-cyclobutyl-6-methylpiperidin-3-yl)oxy)-1-oxoisoindolin-2-yl)piperidine-2,6-dione] |  | 0.5 |  | 85 | 15 |
| CCC[C@H]1CC[C@@H](Oc2ccc3c(c2)CN(C2CCC(=O)NC2=O)C3=O)CN1 (stereo partly drawn) [Example 87-1, 3-(1-oxo-5-(((3R,6S)-6-propylpiperidin-3-yl)oxy)isoindolin-2-yl)piperidine-2,6-dione] |  | 35.9 |  | 71.4 | 28.6 |
| CCC[C@H]1CC[C@@H](Oc2ccc3c(c2)CN(C2CCC(=O)NC2=O)C3=O)CN1CC (stereo partly drawn) [Example 87-2, 3-(5-(((3R,6S)-1-ethyl-6-propylpiperidin-3-yl)oxy)-1-oxoisoindolin-2-yl)piperidine-2,6-dione] |  | 0.6 |  | 89.7 | 10.3 |
| CC1(C)CCC(Oc2ccc3c(c2)CN(C2CCC(=O)NC2=O)C3=O)CN1 (centres unmarked) [Example 88-1, 3-(5-((6,6-dimethylpiperidin-3-yl)oxy)-1-oxoisoindolin-2-yl)piperidine-2,6-dione] |  | 134 |  | 50 | 50 |
| CCN1CC(Oc2ccc3c(c2)CN(C2CCC(=O)NC2=O)C3=O)CCC1(C)C (centres unmarked) [Example 88-2, 3-(5-((1-ethyl-6,6-dimethylpiperidin-3-yl)oxy)-1-oxoisoindolin-2-yl)piperidine-2,6-dione] |  | 0.7 |  | 79.5 | 20.5 |
